Laboratory results: the supplement of paper PMC13380429

How the values were obtained:
[1] = tested on: A549-ACE2 infected with SARS-CoV-2; test: morphology score (similarity to uninfected cells); higher = more like uninfected cells; conditions: 24 h
[2] = tested on: A549-ACE2 infected with SARS-CoV-2; test: cell count relative to DMSO; higher = less toxic; conditions: 24 h
[3] = tested on: Vero E6; test: relative viability EC50 (midpoint between 100% and the lowest measured viability); higher = less toxic; conditions: 72 h
[4] = tested on: Calu-3; test: as above; conditions: 72 h
[5] = tested on: Caco-2; test: as above; conditions: 72 h
[6] = tested on: U2OS; test: as above; conditions: 72 h
[7] = tested on: HepG2; test: drug sensitivity score (DSS) for viability; higher = more toxic; extreme values may be limits of the assay; conditions: 72 h
[8] = tested on: Vero E6; test: as above; conditions: 72 h
[9] = tested on: Calu-3; test: as above; conditions: 72 h
[10] = tested on: Caco-2; test: as above; conditions: 72 h
[11] = tested on: U2OS; test: as above; conditions: 72 h
[12] = tested on: A549-ACE2; test: drug-induced phospholipidosis relative to tamoxifen; higher = more phospholipidosis
[13] = tested on: A549-ACE2; test: phospholipidosis EC50; higher = less potent phospholipidosis inducer
[14] = tested on: A549-ACE2 infected with SARS-CoV-2; test: SARS-CoV-2 infection rate relative to DMSO; higher = more infection; conditions: 24 h
[15] = tested on: HepG2; test: cell viability relative to DMSO; higher = less toxic; conditions: 72 h
[16] = tested on: Vero E6; test: as above; conditions: 72 h
[17] = tested on: Calu-3; test: as above; conditions: 72 h
[18] = tested on: Caco-2; test: as above; conditions: 72 h
[19] = tested on: U2OS; test: as above; conditions: 72 h

Clc1ccccc1CNC[C@H]1CC[C@H](CNCc2ccccc2Cl)CC1 [AY-9944]
Conditions | SARS-CoV-2 infection rate [%] | cell count [%] | cell viability [%] | morphology score | phospholipidosis EC50 [µM]
[1], 0.3 µM | – | – | – | 0.42 | –
[1], 3 µM | – | – | – | 0.76 | –
[1], 10 µM | – | – | – | 0.56 | –
[1], 30 µM | – | – | – | 0.08 | –
[2], 0.3 µM | – | 104 | – | – | –
[2], 3 µM | – | 123 | – | – | –
[2], 10 µM | – | 126 | – | – | –
[2], 30 µM | – | 113 | – | – | –
[13], 24 h | – | – | – | – | 5.85
[13], 48 h | – | – | – | – | 5.4
[13], 72 h | – | – | – | – | 4.53
[14], 0.3 µM | 86 | – | – | – | –
[14], 3 µM | 39 | – | – | – | –
[14], 10 µM | 17 | – | – | – | –
[14], 30 µM | 34 | – | – | – | –
[15], 1 nM | – | – | 104 | – | –
[15], 10 nM | – | – | 96 | – | –
[15], 100 nM | – | – | 110 | – | –
[15], 1000 nM | – | – | 98.1 | – | –
[15], 10000 nM | – | – | 59.2 | – | –
[16], 1 nM | – | – | 102 | – | –
[16], 10 nM | – | – | 104 | – | –
[16], 100 nM | – | – | 105 | – | –
[16], 1000 nM | – | – | 94.5 | – | –
[16], 10000 nM | – | – | 90 | – | –
[17], 1 nM | – | – | 97.7 | – | –
[17], 10 nM | – | – | 104 | – | –
[17], 100 nM | – | – | 106 | – | –
[17], 1000 nM | – | – | 108 | – | –
[17], 10000 nM | – | – | 7.3 | – | –
[18], 1 nM | – | – | 99.5 | – | –
[18], 10 nM | – | – | 108 | – | –
[18], 100 nM | – | – | 99.7 | – | –
[18], 1000 nM | – | – | 95.1 | – | –
[18], 10000 nM | – | – | 83.7 | – | –
[19], 1 nM | – | – | 97.4 | – | –
[19], 10 nM | – | – | 102 | – | –
[19], 100 nM | – | – | 103 | – | –
[19], 1000 nM | – | – | 107 | – | –
[19], 10000 nM | – | – | 92.8 | – | –

Conditions | drug sensitivity score | relative viability EC50 [µM]
[3] | – | > 10
[4] | – | 3.6
[5] | – | > 10
[6] | – | > 10
[7] | 2.3 | –
[8] | 0 | –
[9] | 4.6 | –
[10] | 0.8 | –
[11] | 0 | –

drug-induced phospholipidosis [%], [12]
Conditions | 0.3 µM | 0.833333 µM | 3.33333 µM | 6.66667 µM | 10 µM | 30 µM
24 h | 20.6 | 37.8 | 77.7 | 88.2 | 96.4 | 121
48 h | 14.1 | 38.1 | 78.4 | 112 | 116 | 148
72 h | 17.5 | 29.9 | 79.3 | 115 | 128 | 157
